# Data taken from US20250009714A1, “SELECTION AND TREATMENT OF SUBJECTS HAVING A CIRCULATING MYELOID CELL INFLAMMATORY PHENOTYPE” (Tranquis Therapeutics, Inc., priority 2021, published 2025).
# How the values were obtained:
# [1] = test system: Ly6C^hi inflammatory monocytes; assay: Ex vivo LPS stimulation of wild-type mouse whole blood, FACS of Ly6C^hi cells; assay type: cell-based; details: LPS stimulated, increasing concentrations of TQS-168, 5 hours at 37° C.
# Experimental: Lipopolysaccharide (LPS) was used to induce circulating myeloid cells from wild type mice to adopt an inflammatory phenotype in vitro. […] As schematized in FIG. 1C, blood samples from wild-type mice were collected in EDTA tubes and stimulated with LPS. Whole blood was incubated at 37° C. with increasing concentrations of TQS-168 for 5 hours. Whole blood was lysed with lysis buffer from BD Bioscience for 10 minutes at 37C. Lysed blood was centrifuged at 500 g for 10 minutes. The supernatant was decanted, and cell pellet washed with Hank's balanced salt solution (HBSS). The cells were then centrifuged at 300 g for 10 minutes. They were subsequently resuspended in 2 mM EDTA FACS buffer. Fixed cells (100 μL) were washed with PBS. The cells (100 μL) were resuspended in PBS containing Zombie Aqua solution (Biolegend) at a 1:500 dilution. The cells were incubated in the dark at room temperature for 5 minutes. The cells were then washed with FACS buffer. The cells were stained with Cd11b, Ly6G, and Ly6C antibodies (BD Bioscience). The cells were then incubated with antibodies for 30 minutes. They were then washed with FACS buffer and then resuspended also in FACS buffer. Finally, the cells were acquired on flow cytometer.
# [2] = Plasma levels of TQS-168 after a single oral dose in wild-type mice; assay type: in vivo, mouse; details: single 50 mg/kg dose
# Experimental: FIG. 2A plots plasma concentration of TQS-168 over time after a single oral dose of […] TQS-168 in mice. FIG. 2B is a timeline representative of the protocol of the SOD1 mouse study. Plasma levels of TQS-168 in wild-type mice were analyzed subsequently to a single 50 mg/kg dose of TQS-168.
# [3] = test system: Ly6C^hi inflammatory monocytes in SOD1-G93A mice; assay: Fraction of inflammatory monocytes in SOD1 mice (flow cytometry of blood); assay type: in vivo, mouse; details: 50 mg/kg oral gavage every 3 days from Day 70 until Day 90
# Description: The SOD1-G93A transgenic mouse has proven to be a useful tool in the study of ALS. A large majority of […] in the Superoxide dismutase 1 gene. SOD1-G93A mice express human SOD1 with the G93A mutation under control of the human SOD1 promoter. The mice show a phenotype similar to Amyotrophic Lateral Sclerosis in humans. 60-day old transgenic mice overexpressing the human SOD1-G93A ALS-causing mutation (stock #002726) and wild-type mice (WT; C57BL/6J) were obtained from the Jackson Labs. Oral dosing by gavage started at 70 days of age. SOD1 mice received either TQS-168 50 mg/kg every 3 days or vehicle (same volume and frequency). The staff that dosed and assessed the mice were blinded to treatment allocation. Blood samples were collected in EDTA tubes at 2 time points: 90 days of age and time of euthanasia. Blood samples were processed for flow cytometry and plasma cytokine analysis. Flow cytometry methods employed are the same as those employed in Example 1 and Example 2.
# [4] = test system: plasma cytokines (IL-6, IL-10, TNFα, interferon gamma, CXCL5, etc.); assay: Plasma cytokines in SOD1 mice (48-plex Procarta panel); assay type: in vivo, mouse; details: 50 mg/kg oral gavage every 3 days from Day 70 until day of euthanasia
# Experimental: 60-day old transgenic mice overexpressing the human SOD1-G93A ALS-causing mutation (stock #002726) and wild-type mice (WT; C57BL/6J) were obtained from the Jackson Labs. Oral dosing by gavage started at 70 days of age. SOD1 mice received either TQS-168 50 mg/kg every 3 days or vehicle (same volume and frequency). The staff that dosed and assessed the mice were blinded to treatment allocation. Blood samples were collected in EDTA tubes at 2 time points: 90 days of age and time of euthanasia. Blood samples were processed for flow cytometry and plasma cytokine analysis. Flow cytometry methods employed are the same as those employed in Example 1 and Example 2.
# Blood samples were collected from SOD1 mice at Day 90 and time of euthanasia. Plasma samples were assayed using the 48-plex Procarta panel (Thermo Fisher).
# [5] = test system: SOD1-G93A mice; assay: Survival in SOD1 mice (time from birth to euthanasia, righting reflex); assay type: in vivo, mouse
# Experimental: 60-day old transgenic mice overexpressing the human SOD1-G93A ALS-causing mutation (stock #002726) were obtained from the Jackson Labs. Dosing started at 70 days of age. SOD1 mice received either TQS-168 50 mg/kg every 3 days or vehicle (same volume and frequency) by oral gavage. The righting reflex (ability to turn over when place on their backs) was assessed every 3 days when mice were <110 days old and every day after age 110 days. Mice were euthanized if they could not right themselves in 20 seconds after being placed onto their back. Time from birth to euthanasia was calculated for each mouse and compared in the two groups.
# [6] = test system: CD14+CD16+ monocytes; assay: Four-hour ex vivo incubation of whole blood of ALS patients, FACS of CD14+CD16+ monocytes; assay type: cell-based, human; details: 4-hour ex vivo incubation
# Experimental: Whole blood samples from patients with ALS were shipped at room temperature. The percentage of CD14+CD16+ monocytes were determined by fluorescence activated cell sorting (FACS). Briefly, whole blood was lysed with lysis buffer (BD Bioscience) for 10 minutes at 37° C. Lysed blood was centrifuged at 500 g for 10 min. Supernatant was decanted and the cell pellet washed with HBSS (Hank's balanced salt solution). Cells were centrifuged at 300 g for 10 min. Cells were resuspended in FACS buffer (PBS+2% FBS[…]). Fixed cells (100 μL) were washed with PBS. Cells (100 μL) were resuspended in PBS containing Zombie Aqua (Biolegend; 1:500 dilution). Cells were incubated in the dark at room temperature for 5 minutes. Cells were washed with FACS buffer. Cells were stained with 5 μL CD16 and 5 μL CD14 antibodies (BD Bioscience). Cells were incubated with antibodies for 30 minutes. Cells were washed with FACS buffer. Cells were resuspended in FACS buffer. Cells were acquired on a flow cytometer. FIG. 5B outlines the experimental protocol for assessing the effects of ex vivo incubation with TQS-168 on the inflammatory phenotype of circulating myeloid cells in peripheral blood samples of ALS patients. Samples were obtained from iSpecimen (Lexington, MA) and BioIVT (Westbury, NY). Blood samples were processed within 36 hours of collection and were never frozen. […]
# [7] = test system: Ppargc1α (PGC-1α) expression; details: direct molecular binding partner unknown; cited from earlier work
# [8] = test system: SOD1-G93A mice; details: SOD1 mouse model; cited from earlier work
SMILES,LPS-induced increase in percentage of Ly6C^hi inflammatory monocytes [1],oral bioavailability (plasma levels) [2],increase in circulating Ly6C^hi monocytes in SOD1 mice [3],increase in plasma cytokines from Day 90 to day of euthanasia [4],survival compared with vehicle ([5]; 50 mg/kg oral gavage every 3 days),median survival ([5]; 50 mg/kg oral gavage every 3 days from 70 days of age) [days],"difference in median survival versus vehicle ([5]; 50 mg/kg oral gavage every 3 days, vehicle 129) [days]","percentage of CD14+CD16+ monocytes after incubation ([6]; 30 μM, from 1.5% without compound)",change in percentage of intermediate (CD14+CD16+) monocytes with increasing concentrations [6],effect on Ppargc1α (PGC-1α) expression [7],survival benefit in the SOD1 model (approved ALS treatments) [8]
"CC(C)(C)c1ccc(-c2nc3ccccc3[nH]2)cc1 [TQS-168, 2-(4-tert-butylphenyl)-1H-benzimidazole]",inhibits the LPS-induced increase in Ly6C^hi monocytes,orally bioavailable,inhibited the increase in circulating Ly6C^hi monocytes,inhibited this increase in plasma cytokines,survived longer,135,6,less than 1%,dose-dependent decrease,activator of Ppargc1α (PGC-1α) expression,–
CC1=NN(c2ccccc2)C(=O)C1 [edaravone],–,–,–,–,–,–,–,–,–,–,failed to display survival benefits
